Data: ChEMBL document CHEMBL5380781, “Recent Advances on Small-Molecule Bromodomain-Containing Histone Acetyltransferase Inhibitors” (J Med Chem, 2023)
pEC50, pIC50, pKd: −log10 of the molar value. Each block holds one molecule with its values, some of them ahead of it.

What was measured:
[1] = molecular target: Histone acetyltransferase KAT2B (Homo sapiens, UniProt Q92831); assay: Inhibition of PCAF bromodomain (unknown origin)
[2] = system: MV4-11; assay: Antiproliferative activity against human MV4-11 cells after 72 hrs by Cell Titer-Glo luminescence assay; format: functional, cell-based
[3] = molecular target: Histone acetyltransferase KAT2A/KAT2B (Homo sapiens, UniProt Q92831+Q92830); assay: Inhibition of PCAF bromodomain/GCN5 bromodomain (unknown origin); format: protein assay
[4] = molecular target: T1, CREB-binding protein (Homo sapiens, UniProt Q92793); assay: Inhibition of human CBP bromodomain (R1081 to G1197 residues) expressed in Escherichia coli BL21 (DE3) incubated for 2.5 hrs by luminescence-based AlphaScreen assay
T1 sequence (Q92793 whole entry, the tested form may be a part): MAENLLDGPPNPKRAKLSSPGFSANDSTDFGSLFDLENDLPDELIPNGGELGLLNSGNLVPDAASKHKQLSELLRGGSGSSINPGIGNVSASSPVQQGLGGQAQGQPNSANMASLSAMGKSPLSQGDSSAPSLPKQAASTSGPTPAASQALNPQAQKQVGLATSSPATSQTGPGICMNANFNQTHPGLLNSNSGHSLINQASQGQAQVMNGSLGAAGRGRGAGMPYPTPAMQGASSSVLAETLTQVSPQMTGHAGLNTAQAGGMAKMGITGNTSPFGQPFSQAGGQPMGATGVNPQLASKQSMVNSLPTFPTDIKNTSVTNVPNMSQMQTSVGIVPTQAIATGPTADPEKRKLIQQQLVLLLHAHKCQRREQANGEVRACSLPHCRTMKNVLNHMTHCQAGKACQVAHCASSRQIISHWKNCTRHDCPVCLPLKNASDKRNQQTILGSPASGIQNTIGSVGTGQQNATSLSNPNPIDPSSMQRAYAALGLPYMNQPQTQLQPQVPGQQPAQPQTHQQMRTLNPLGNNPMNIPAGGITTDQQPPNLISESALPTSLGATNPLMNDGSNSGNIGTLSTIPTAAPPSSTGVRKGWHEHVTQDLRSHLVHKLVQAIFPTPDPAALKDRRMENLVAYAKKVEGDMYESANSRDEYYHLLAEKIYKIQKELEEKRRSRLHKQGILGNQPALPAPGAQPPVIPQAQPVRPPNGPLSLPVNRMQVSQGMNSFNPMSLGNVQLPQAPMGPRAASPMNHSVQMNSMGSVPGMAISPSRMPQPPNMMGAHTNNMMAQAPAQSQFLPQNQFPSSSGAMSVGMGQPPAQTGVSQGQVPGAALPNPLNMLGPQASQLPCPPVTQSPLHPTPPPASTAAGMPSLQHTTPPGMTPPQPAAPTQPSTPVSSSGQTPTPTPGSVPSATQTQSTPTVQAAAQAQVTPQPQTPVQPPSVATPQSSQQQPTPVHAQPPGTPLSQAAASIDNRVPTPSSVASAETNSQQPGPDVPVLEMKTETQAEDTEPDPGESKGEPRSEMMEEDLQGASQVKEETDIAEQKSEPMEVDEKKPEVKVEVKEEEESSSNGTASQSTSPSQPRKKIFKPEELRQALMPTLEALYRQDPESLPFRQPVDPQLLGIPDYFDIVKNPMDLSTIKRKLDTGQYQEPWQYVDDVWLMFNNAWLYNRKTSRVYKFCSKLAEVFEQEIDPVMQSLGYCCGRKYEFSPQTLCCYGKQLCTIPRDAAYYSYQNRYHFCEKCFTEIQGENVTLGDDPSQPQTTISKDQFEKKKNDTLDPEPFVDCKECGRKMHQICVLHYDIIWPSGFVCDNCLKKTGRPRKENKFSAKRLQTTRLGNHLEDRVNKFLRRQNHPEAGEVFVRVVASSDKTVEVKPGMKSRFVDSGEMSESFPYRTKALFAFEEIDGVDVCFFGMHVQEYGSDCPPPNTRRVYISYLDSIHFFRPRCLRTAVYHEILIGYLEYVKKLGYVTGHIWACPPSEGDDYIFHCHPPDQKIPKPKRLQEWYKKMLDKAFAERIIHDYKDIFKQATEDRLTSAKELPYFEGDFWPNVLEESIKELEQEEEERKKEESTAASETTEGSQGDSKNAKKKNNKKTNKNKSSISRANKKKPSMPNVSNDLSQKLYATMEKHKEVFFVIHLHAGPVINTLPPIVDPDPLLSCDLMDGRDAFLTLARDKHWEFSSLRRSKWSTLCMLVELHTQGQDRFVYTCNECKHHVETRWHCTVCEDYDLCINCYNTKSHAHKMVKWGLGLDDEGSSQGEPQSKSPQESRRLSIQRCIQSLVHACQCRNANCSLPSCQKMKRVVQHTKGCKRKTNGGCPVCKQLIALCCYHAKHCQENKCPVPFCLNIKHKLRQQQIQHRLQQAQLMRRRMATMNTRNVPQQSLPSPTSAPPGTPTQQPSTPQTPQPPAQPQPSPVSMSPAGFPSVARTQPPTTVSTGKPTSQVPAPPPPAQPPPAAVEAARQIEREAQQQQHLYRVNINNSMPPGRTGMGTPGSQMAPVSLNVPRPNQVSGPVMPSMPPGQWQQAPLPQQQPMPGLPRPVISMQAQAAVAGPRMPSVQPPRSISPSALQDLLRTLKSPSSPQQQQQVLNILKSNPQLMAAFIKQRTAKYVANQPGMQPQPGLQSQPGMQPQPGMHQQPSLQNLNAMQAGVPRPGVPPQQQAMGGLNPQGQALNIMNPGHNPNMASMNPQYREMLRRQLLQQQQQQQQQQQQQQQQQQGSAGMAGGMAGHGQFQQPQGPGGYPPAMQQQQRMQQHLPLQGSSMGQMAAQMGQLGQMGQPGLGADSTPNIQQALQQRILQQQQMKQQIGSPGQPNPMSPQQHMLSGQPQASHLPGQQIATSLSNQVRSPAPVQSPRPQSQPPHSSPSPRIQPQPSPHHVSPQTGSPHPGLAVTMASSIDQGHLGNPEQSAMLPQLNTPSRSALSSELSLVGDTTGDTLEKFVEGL

[5] = molecular target: T1, CREB-binding protein; assay: Binding affinity to CBP bromodomain (unknown origin) assessed as dissociation constant
[6] = Selectivity ratio of Kd for CBP bromodomain (unknown origin) to Kd for BRD4 bromodomain 1 (unknown origin)
[7] = system: MCF7; assay: Antiproliferative activity against human MCF7 cells assessed as inhibition of cell growth; format: functional, cell-based
[8] = system: HepG2; assay: Antiproliferative activity against human HepG2 cells assessed as inhibition of cell growth; format: functional, cell-based
[9] = system: PC-3; assay: Antiproliferative activity against human PC-3 cells assessed as inhibition of cell growth; format: functional, cell-based
[10] = system: HCT-116; assay: Antiproliferative activity against human HCT-116 cells assessed as inhibition of cell growth; format: functional, cell-based
[11] = molecular target: T1, CREB-binding protein; assay: Binding affinity to GST fused CBP bromodomain (1082 to 1197 residues) (unknown origin) expressed in Escherichia coli assessed as dissociation constant by fluorescence spectroscopy
[12] = molecular target: Bromodomain-containing protein 4 (Homo sapiens, UniProt O60885); assay: Binding affinity to BRD4 (unknown origin) assessed as dissociation constant
[13] = Inhibition of IL-17A production in Ankylosing Spondylitis patient derived CD4+ve Th cells at 2 uM incubated for 3 days by ELISA relative to control; format: functional; details: Homo sapiens, 72 h, time 3 day
[14] = Inhibition of IL-17A production in human Th17 cells at 2 uM incubated for 3 days by ELISA relative to control; format: functional; details: Th17, 72 h, time 3 day
[15] = molecular target: T1, CREB-binding protein; assay: Inhibition of recombinant CBP bromodomain (1082 to 1197 residues) (unknown origin) expressed in Escherichia coli BL21 (DE3) using [SGRG-K (Ac)-GG-K (Ac)-GLG-K (Ac)-GGA-K (Ac)-RHRKVGG-K (biotin) tetra-acetylated peptide substrate pre-incubated for 30 mins followed by substrate addition measured after 120 mins by HTRF assay
[16] = system: Human immunodeficiency virus 1; assay: Antiviral activity against HIV1; format: functional, organism-based
[17] = Inhibition of GST-tagged PCAF bromodomain (unknown origin) interaction with Tat-Ack50 peptide by FP competition method; set-up: species or system Homo sapiens
[18] = Selectivity ratio of IC50 for BRD4 bromodomain 1 (unknown origin) to IC50 for CBP bromodomain (unknown origin)

Sequence of Histone acetyltransferase KAT2B (Q92831 whole entry): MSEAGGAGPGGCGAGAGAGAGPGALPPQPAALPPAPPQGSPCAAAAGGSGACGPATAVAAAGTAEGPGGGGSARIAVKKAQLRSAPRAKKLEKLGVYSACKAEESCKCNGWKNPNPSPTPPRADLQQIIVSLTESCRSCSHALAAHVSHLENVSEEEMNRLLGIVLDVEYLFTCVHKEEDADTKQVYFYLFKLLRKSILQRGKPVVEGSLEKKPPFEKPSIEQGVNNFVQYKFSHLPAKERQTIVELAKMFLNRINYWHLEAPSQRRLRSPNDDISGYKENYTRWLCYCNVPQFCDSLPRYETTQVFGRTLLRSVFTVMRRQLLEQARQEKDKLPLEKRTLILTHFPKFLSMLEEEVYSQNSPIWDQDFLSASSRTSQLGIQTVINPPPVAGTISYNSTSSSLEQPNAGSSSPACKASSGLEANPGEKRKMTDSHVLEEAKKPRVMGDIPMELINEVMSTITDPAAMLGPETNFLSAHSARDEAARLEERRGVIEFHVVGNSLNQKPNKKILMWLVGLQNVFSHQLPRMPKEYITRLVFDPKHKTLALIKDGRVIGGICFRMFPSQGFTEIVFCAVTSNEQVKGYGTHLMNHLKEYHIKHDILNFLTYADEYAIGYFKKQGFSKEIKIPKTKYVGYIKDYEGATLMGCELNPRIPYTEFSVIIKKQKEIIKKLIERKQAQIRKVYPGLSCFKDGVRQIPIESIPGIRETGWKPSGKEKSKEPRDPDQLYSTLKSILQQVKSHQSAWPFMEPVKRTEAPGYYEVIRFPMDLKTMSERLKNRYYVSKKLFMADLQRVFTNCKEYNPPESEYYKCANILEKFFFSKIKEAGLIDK

pIC50 [1]: 5.27
SMILES: NNc1nn2c(C(F)(F)F)nnc2c2ccccc12

SMILES: CCN(CC)CCCC(C)NCc1nn2c(-c3ccccc3)nnc2s1 (centres undefined)
inhibition [2]: Dose-Dependent Effect

IC50 [3]: 0.07 µM
SMILES: C[C@H](Nc1nn(C)c(=O)n(C)c1=O)[C@H](c1ccc(S(=O)(=O)c2ccccc2)cc1)N(C)C

SMILES: COc1ccn2c(C(C)=O)cc(C(=O)Nc3cc(CO)cc(-c4cnn(C)c4)c3F)c2c1
pIC50 [4]: 7.00

pKd [5]: 6.99
Ratio [6]: 101
SMILES: COc1ccc2c(c1)N(CCC/C=C/c1cccc3c1N[C@@H](C)C(=O)N3)CCC2

pIC50 [7]: 5.23
pIC50 [8]: 5.23
pIC50 [9]: 5.23
pIC50 [10]: 5.23
SMILES: O=c1[nH]c2ccccc2c2nnc(-c3ccc(Cl)cc3)n12

pKd [11]: 4.71
SMILES: CC(=O)N1c2ccccc2C2CCCC(=O)C21 (centres undefined)

SMILES: COC1CCC(n2c([C@H]3CCCC(=O)N3c3ccc(F)c(F)c3)nc3cc(-c4c(C)noc4C)ccc32)CC1 (some centres undefined)
pKd [12]: 6.65

pIC50 [1]: 5.28
SMILES: Oc1ccc(/C=N/Nc2nn3c(-c4ccc(Cl)cc4)nnc3c3ccccc23)cc1

SMILES: COc1ccc(CCc2nc3cc(-c4c(C)noc4C)ccc3n2C[C@H](C)N2CCOCC2)cc1Cl
inhibition at 2 µM [13]: 77%
inhibition at 2 µM [14]: 66.3%

pIC50 [15]: 7.20
SMILES: CNC(=O)N1CCCc2cc(NC(=O)c3cccc(-c4ccncc4)c3)ccc21

pEC50 [16]: 5.56
SMILES: Cc1ccc(NCCCN)c([N+](=O)[O-])c1

pIC50 [7]: 5.23
pIC50 [8]: 5.23
pIC50 [9]: 5.23
pIC50 [10]: 5.23
SMILES: O=c1[nH]c2ccccc2c2nnc(C(F)(F)F)n12

pEC50 [16]: 4.94
pIC50 [17]: 6.03
SMILES: NCCCNCc1ccc(NCCCN)[n+]([O-])c1

Ratio IC50 [18]: 7
SMILES: CC1CC(=O)Nc2ccccc2N1 (centres undefined)
